Test results as given in patent US5059607A, “Imidazolyl benzisoquinolines useful as 5-HT3 receptor antagonists” (Ono-Pharmaceutical Co., Ltd., priority 1989, dated 1991).
Structures can show the parent of a compound that is named as a salt. Where two headings read alike, the source gives them in different places.

Experiments:
[1] = molecular target: T1, 5-HT3 receptor (Rattus norvegicus, UniProt P35563); experiment: Antagonistic activity against 5-HT3 receptor in vivo in rats (suppression of 5-HT-induced reflex bradycardia); conditions: urethane-anesthetized male Wister rat
T1 construct: 5-HT3 receptor in vivo in rats; from tissue; host or cells: whole anesthetized male Wistar rat (in vivo; endogenous receptor, no preparation isolated)
T1 sequence (P35563 24-483): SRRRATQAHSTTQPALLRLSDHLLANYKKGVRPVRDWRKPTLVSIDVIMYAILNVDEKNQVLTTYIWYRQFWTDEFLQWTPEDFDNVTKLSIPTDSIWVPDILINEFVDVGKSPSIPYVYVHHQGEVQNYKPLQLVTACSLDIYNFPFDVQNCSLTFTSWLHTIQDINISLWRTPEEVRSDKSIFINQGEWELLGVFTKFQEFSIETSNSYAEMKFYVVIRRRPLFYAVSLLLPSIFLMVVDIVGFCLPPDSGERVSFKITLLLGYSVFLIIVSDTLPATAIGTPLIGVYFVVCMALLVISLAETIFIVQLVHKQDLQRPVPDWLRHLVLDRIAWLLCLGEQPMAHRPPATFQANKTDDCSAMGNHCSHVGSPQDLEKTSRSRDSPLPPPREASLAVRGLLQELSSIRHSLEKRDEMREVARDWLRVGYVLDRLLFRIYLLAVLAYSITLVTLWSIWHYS
Method: Male Wister rat was urethane-anesthetized and fixed. Cannulas were inserted in the carotid artery and in the thigh vein as used for the recording of blood pressure and heart beat, and for the administration of the test compounds, respectively.
Several amounts of a compound of the present invention were administered from the vein or to the duodenum. 5-HT was administered rapidly to the vein, 2 mins. after administration of the compound of the present invention.

[2] = Acute toxicity (LD50) in mice; conditions: mouse, in vivo
[3] = iv, 5-HT i.v. 2 mins after compound, read-out: IC50 i.v. (antagonistic activity against 5-HT3 receptor in vivo in rats)

Compound | ED50 [1, 3] [µg/kg] | LD50 ([2]; intravenous administration, read-out: acute toxicity (LD50), intravenous) [µg/kg] | LD50 ([2]; oral administration, read-out: acute toxicity (LD50), oral) [µg/kg] | ED50 ([1]; i.d. (to the duodenum), read-out: ID50 i.d. (antagonistic activity against 5-HT3 receptor in vivo in rats)) [µg/kg]
Cc1[nH]cnc1Cn1ccc2cc(Br)c3ccccc3c2c1=O.Cl [1(g), 2-(5-methylimidazol-4-ylmethyl)-6-bromo-1,2-dihydrobenz[1,2-h]isoquinolin-1-one hydrochloride] | 5.87 |  |  | 
COc1cc2ccccc2c2c(=O)n(Cc3nc[nH]c3C)ccc12.Cl [1(a), 2-(5-methylimidazol-4-ylmethyl)-5-methoxy-1,2-dihydrobenz[1,2-h]isoquinolin-1-one hydrochloride] | 2.4 |  |  | 
Cc1[nH]cnc1Cn1ccc2c(O)cc3ccccc3c2c1=O.Cl [Example 1(f), 2-(5-methylimidazol-4-ylmethyl)-5-hydroxy-1,2-dihydrobenz[1,2-h]isoquinolin-1-one hydrochloride] | 0.62 |  |  | 
Cc1[nH]cnc1Cn1ccc2ccc3ccccc3c2c1=O.Cl [Example 1, 2-(5-methylimidazol-4-yl-methyl)-1,2-dihydrobenz[1,2-h]isoquinolin-1-one hydrochloride] | 0.29 | 94000 | > 800000 | 7.5
Cc1[nH]cnc1Cn1ccc2cc(C)c3ccccc3c2c1=O.Cl [1(d), 2-(5-methylimidazol-4-ylmethyl)-6-methyl-1,2-dihydrobenz[1,2-h]isoquinolin-1-one hydrochloride] | 0.89 |  |  | 
Cc1[nH]cnc1Cn1ccc2c(C)cc3ccccc3c2c1=O [1(e), 2-(5-methylimidazol-4-ylmethyl)-5-methyl-1,2-dihydrobenz[1,2-h]isoqionolin-1-one hydrochloride] | 1.19 |  |  | 
